{"source": "patent US20260159536A1", "about": "“AKR1C3-ACTIVATED DNA ALKYLATING AGENT, AND MEDICAL APPLICATION THEREOF” (ASCENTAWITS PHARMACEUTICALS, LTD., priority 2021, published 2026)", "key": {"[1]": {"assay": "Blood-brain barrier assay of Compound A (plasma and brain concentration, PK)", "type": "in vivo, CD-1 mice", "settings": "1 mg/kg intravenously, Mean", "description": "Three CD-1 mice were administered 1 mg/kg of the test Compound A intravenously at each time point. Blood and brain tissue were taken at 5 min, 15 min, 1 h, 2 h, 4 h and 8 h after administration.\nThe PK (Pharmacokinetic) parameters obtained from the above assays were listed as follows, as shown in Table 33 and Table 34. • PK parameters, pharmacokinetic parameters. • T1/2, half-life. • Cl-obs, plasma clearance. • C0, starting concentration. • AUClast, area under the concentration-time curve from start of administration time to the last point. • AUCInf, area under the concentration-time curve from start of administration to the time at infinity. • Tmax, time to maximum observed plasma concentration. • Cmax, concentration to maximum observed plasma concentration. • MRTlnf-obs, represents the mean residence time from the start of administration to the time of theoretical extrapolation to infinity. • AUClnf Ration (Brain/Plasma), the ratio of the area under the concentration-time curve of serum and brain tissue from the start of administration to the time at infinity. • Unit, unit. • Mean, average value."}, "SNU886": {"tested_on": "SNU886", "assay": "Cytotoxicity on hepatocellular carcinoma cell line SNU886", "type": "cell-based", "description": "(§1) If not otherwise specified, IC50 values were measured by the following experimental methods:\n(§2) a) Cells were plated for 24 hours, and then the compounds acted singly. 99 μL of growth medium was supplemented per well, and then 1 μL of 200× compound was added, gently shaken to ensure uniform mixing, and then placed in a 37° C., 5% CO2 incubator.\n(§3) b) The cell plate was placed in the incubator for 72 hours.\n(§4) b) 100 μL of CTG reagent (CelltiterGlo kit) was added to each well, the plate was placed in a rapid oscillator and shaken for 2 minutes, and then placed at room temperature for 30 minutes away from light.\n(§5) The IC50 was calculated using GraphPad Prism 8 software and the IC50 (half inhibitory concentration) of the compounds was obtained using the following non-linear fitting formula: […]\n(§6) Using the same experimental methods as described above, Compounds A, B and C were further tested for cytotoxicity against different hepatocellular carcinoma (HCC) cell lines SNU354, SNU886, MHCC97H and huH-1, and the results were shown in Table 2 below: […]"}, "[2]": {"tested_on": "HuPrime model LU0884 human lung cancer", "assay": "In vivo pharmacodynamics, lung cancer LU0884 PDX model", "set-up": "species or system BALB/c nude mice", "settings": "for T/C (%) / TGI (%) / Relative tumor volume (x ± S) / Tumor volume (x ± S): QWx3, i.v.; for Relative tumor volume (x ± S) / Tumor volume (x ± S): mean ± standard error; for Tumor volume (x ± S): in mm³ (unit assumed)"}, "[3]": {"assay": "Plasma stability test, rat", "type": "in vitro ADME", "settings": "5 μM, 37° C.", "description": "The pH of the plasma was checked and recorded. Note: a.\nThe final concentration of solvent was 0.5%.\nThe assay was performed in duplicate. […] The tubes were mixed by vortex for 5 minutes."}, "MHCC97H": {"tested_on": "MHCC97H", "assay": "Cytotoxicity on hepatocellular carcinoma cell line MHCC97H", "type": "cell-based", "description": "as §1, §2, §3, §4, §5, §6"}, "[4]": {"tested_on": "human liver cancer LI6652", "assay": "In vivo pharmacodynamics, liver cancer LI6652 subcutaneous xenograft PDX model", "set-up": "species or system BALB/c nude mice", "settings": "5 mg/kg i.p. QDx5, 2 days off, 2 weeks off, 2 cycles; Day 28"}, "[5]": {"settings": "Paclitaxel 20 mg/kg, Compound A 2.5, 5, 10 mg/kg"}}}
{"compound": "O=[N+]([O-])c1ccc(C(OP(=O)(N2CC2)N2CC2)C(F)(F)F)cc1Oc1ccc(-c2ccc(F)cc2)c(F)c1", "note": "(racemic) [Compound A]", "values": [{"measurement": "AUCInf", "setting": "[1]; brain tissues", "result": 872.43, "unit": "ng·h/g"}, {"measurement": "AUClast", "setting": "[1]; brain tissues", "result": 785.85, "unit": "ng·h/g"}, {"measurement": "Cl_obs", "setting": "[1]; plasma", "result": 13.85, "unit": "mL/min/kg"}, {"measurement": "Vss_obs", "setting": "[1]; plasma", "result": 3.63, "unit": "L/kg"}, {"measurement": "ratio A/B", "setting": "SNU886; IC50 ratio", "result": 1.66}, {"measurement": "ratio A/C", "setting": "SNU886; IC50 ratio", "result": 0.75}, {"measurement": "IC50", "setting": "SNU886; SNU-886", "result": 628, "unit": "nM"}, {"measurement": "T/C (%)", "setting": "[2]; Compound A 2.5 mg/kg, Day 28", "result": 57.85, "unit": "%"}, {"measurement": "TGI (%)", "setting": "[2]; Compound A 2.5 mg/kg, Day 28", "result": 42.15, "unit": "%"}, {"measurement": "Relative tumor volume (x ± S)", "setting": "[2]; Compound A 2.5 mg/kg, Day 28", "result": "3.47 ± 0.56"}, {"measurement": "Tumor volume (x ± S)", "setting": "[2]; Compound A 2.5 mg/kg, Day 28", "result": "360.43 ± 44.42"}, {"measurement": "T/C (%)", "setting": "[2]; Compound A 5 mg/kg, Day 28", "result": 43.62, "unit": "%"}, {"measurement": "TGI (%)", "setting": "[2]; Compound A 5 mg/kg, Day 28", "result": 56.38, "unit": "%"}, {"measurement": "Relative tumor volume (x ± S)", "setting": "[2]; Compound A 5 mg/kg, Day 28", "result": "2.61 ± 0.94"}, {"measurement": "Tumor volume (x ± S)", "setting": "[2]; Compound A 5 mg/kg, Day 28", "result": "291.60 ± 103.85"}, {"measurement": "T/C (%)", "setting": "[2]; Compound A 10 mg/kg, Day 28", "result": 63.02, "unit": "%"}, {"measurement": "TGI (%)", "setting": "[2]; Compound A 10 mg/kg, Day 28", "result": 36.98, "unit": "%"}, {"measurement": "Relative tumor volume (x ± S)", "setting": "[2]; Compound A 10 mg/kg, Day 28", "result": "3.78 ± 1.19"}, {"measurement": "Tumor volume (x ± S)", "setting": "[2]; Compound A 10 mg/kg, Day 28", "result": "434.80 ± 160.03"}, {"measurement": "Size of tumor volume", "setting": "[2]; Group 4, Compound A 2.5 mg/kg, Day 0", "result": 109.86, "unit": "mm^3"}, {"measurement": "Size of tumor volume", "setting": "[2]; Group 4, Compound A 2.5 mg/kg, Day 4", "result": 138.21, "unit": "mm^3"}, {"measurement": "Size of tumor volume", "setting": "[2]; Group 4, Compound A 2.5 mg/kg, Day 7", "result": 177.96, "unit": "mm^3"}, {"measurement": "Size of tumor volume", "setting": "[2]; Group 4, Compound A 2.5 mg/kg, Day 11", "result": 194.38, "unit": "mm^3"}, {"measurement": "Size of tumor volume", "setting": "[2]; Group 4, Compound A 2.5 mg/kg, Day 14", "result": 216.81, "unit": "mm^3"}, {"measurement": "Size of tumor volume", "setting": "[2]; Group 4, Compound A 2.5 mg/kg, Day 18", "result": 261.94, "unit": "mm^3"}, {"measurement": "Size of tumor volume", "setting": "[2]; Group 4, Compound A 2.5 mg/kg, Day 21", "result": 287.79, "unit": "mm^3"}, {"measurement": "Size of tumor volume", "setting": "[2]; Group 4, Compound A 2.5 mg/kg, Day 25", "result": 328.61, "unit": "mm^3"}, {"measurement": "Size of tumor volume", "setting": "[2]; Group 4, Compound A 2.5 mg/kg, Day 28", "result": 360.43, "unit": "mm^3"}, {"measurement": "Size of tumor volume", "setting": "[2]; Group 5, Compound A 5 mg/kg, Day 0", "result": 110.67, "unit": "mm^3"}, {"measurement": "Size of tumor volume", "setting": "[2]; Group 5, Compound A 5 mg/kg, Day 4", "result": 173.28, "unit": "mm^3"}, {"measurement": "Size of tumor volume", "setting": "[2]; Group 5, Compound A 5 mg/kg, Day 7", "result": 221.81, "unit": "mm^3"}, {"measurement": "Size of tumor volume", "setting": "[2]; Group 5, Compound A 5 mg/kg, Day 11", "result": 229.45, "unit": "mm^3"}, {"measurement": "Size of tumor volume", "setting": "[2]; Group 5, Compound A 5 mg/kg, Day 14", "result": 236.47, "unit": "mm^3"}, {"measurement": "Size of tumor volume", "setting": "[2]; Group 5, Compound A 5 mg/kg, Day 18", "result": 260.75, "unit": "mm^3"}, {"measurement": "Size of tumor volume", "setting": "[2]; Group 5, Compound A 5 mg/kg, Day 21", "result": 271.59, "unit": "mm^3"}, {"measurement": "Size of tumor volume", "setting": "[2]; Group 5, Compound A 5 mg/kg, Day 25", "result": 289.40, "unit": "mm^3"}, {"measurement": "Size of tumor volume", "setting": "[2]; Group 5, Compound A 5 mg/kg, Day 28", "result": 291.60, "unit": "mm^3"}, {"measurement": "Size of tumor volume", "setting": "[2]; Group 6, Compound A 10 mg/kg, Day 0", "result": 109.04, "unit": "mm^3"}, {"measurement": "Size of tumor volume", "setting": "[2]; Group 6, Compound A 10 mg/kg, Day 4", "result": 202.09, "unit": "mm^3"}, {"measurement": "Size of tumor volume", "setting": "[2]; Group 6, Compound A 10 mg/kg, Day 7", "result": 257.40, "unit": "mm^3"}, {"measurement": "Size of tumor volume", "setting": "[2]; Group 6, Compound A 10 mg/kg, Day 11", "result": 283.55, "unit": "mm^3"}, {"measurement": "Size of tumor volume", "setting": "[2]; Group 6, Compound A 10 mg/kg, Day 14", "result": 293.14, "unit": "mm^3"}, {"measurement": "Size of tumor volume", "setting": "[2]; Group 6, Compound A 10 mg/kg, Day 18", "result": 343.92, "unit": "mm^3"}, {"measurement": "Size of tumor volume", "setting": "[2]; Group 6, Compound A 10 mg/kg, Day 21", "result": 359.85, "unit": "mm^3"}, {"measurement": "Size of tumor volume", "setting": "[2]; Group 6, Compound A 10 mg/kg, Day 25", "result": 411.01, "unit": "mm^3"}, {"measurement": "Size of tumor volume", "setting": "[2]; Group 6, Compound A 10 mg/kg, Day 28", "result": 434.80, "unit": "mm^3"}, {"measurement": "tolerability", "setting": "[2]; [5]", "result": "well tolerated"}, {"measurement": "tumor inhibitory effect", "setting": "[2]; [5]", "result": "certain tumor inhibitory effects"}, {"measurement": "Percentage remaining after 2 hours in plasma", "setting": "[3]", "result": 33.03, "unit": "%"}, {"measurement": "IC50", "setting": "MHCC97H; Homo sapiens", "result": 396, "unit": "nM"}, {"measurement": "ratio A/B", "setting": "MHCC97H; IC50 ratio", "result": 1.63}, {"measurement": "ratio A/C", "setting": "MHCC97H; IC50 ratio", "result": 0.70}, {"measurement": "TGI (%)", "setting": "[4]", "result": 99.86, "unit": "%"}]}
